Reference: ChEMBL document CHEMBL3885881, “DrugMatrix”

Species: Rattus norvegicus
Assay: DrugMatrix - Regimen: Daily Repeat
Type: toxicity, organism-based, Sprague-Dawley
Parameters: regimen Daily Repeat, gender Male, age 6-8 weeks
Details: in vivo, po, route oral GAVAGE, […]; for ABSOLUTE BASOPHIL / ABSOLUTE EOSINOPHIL / ABSOLUTE LYMPHOCYTE / ABSOLUTE MONOCYTE / ABSOLUTE SEGMENTED NEUTROPHIL / BASOPHIL / EOSINOPHIL / ERYTHROCYTE COUNT / HEMATOCRIT / HEMOGLOBIN / LEUKOCYTE COUNT / LYMPHOCYTE / MEAN CORPUSCULAR HEMOGLOBIN / MEAN CORPUSCULAR HEMOGLOBIN CONCENTRATION / MEAN CORPUSCULAR VOLUME / MONOCYTE / NEUTROPHIL / NUCLEATED RED BLOOD CELLS / PLATELET COUNT: tissue Blood; for ALANINE AMINOTRANSFERASE / ALBUMIN / ALKALINE PHOSPHATASE / ASPARTATE AMINOTRANSFERASE / BLOOD UREA NITROGEN / CARBON DIOXIDE / CHLORIDE / CHOLESTEROL / CREATINE PHOSPHOKINASE / CREATININE / GLUCOSE / LACTATE DEHYDROGENASE / LIPASE / PHOSPHORUS / POTASSIUM / SODIUM / TOTAL BILIRUBIN / TOTAL PROTEIN / URIC ACID: tissue Plasma
[1] = 0 mg/kg, 72 h, dose level Control, time 3 day
[2] = 0 mg/kg, 120 h, dose level Control, time 5 day
[3] = 25 mg/kg, 72 h, dose level Low, time 3 day

## CC(C)(C)NC(=O)[C@H]1CC[C@H]2[C@@H]3CC[C@H]4NC(=O)C=C[C@]4(C)[C@H]3CC[C@]12C [FINASTERIDE]
[1]
  ABSOLUTE BASOPHIL: 0 CELLS/uL
  ABSOLUTE EOSINOPHIL: 52.33 CELLS/uL
  ABSOLUTE LYMPHOCYTE: 9105.33 CELLS/uL
  ABSOLUTE MONOCYTE: 155.67 CELLS/uL
  ABSOLUTE SEGMENTED NEUTROPHIL: 1020 CELLS/uL
  BASOPHIL: 0%
  EOSINOPHIL: 0.33%
  ERYTHROCYTE COUNT: 5.03 x10E6/uL
  HEMATOCRIT: 31.63%
  HEMOGLOBIN: 12.37 G/DL
  LEUKOCYTE COUNT: 10.33 x10E3/uL
  LYMPHOCYTE: 87%
  MEAN CORPUSCULAR HEMOGLOBIN: 24.57 pg
  MEAN CORPUSCULAR HEMOGLOBIN CONCENTRATION: 39.07 G/DL
  MEAN CORPUSCULAR VOLUME: 62.93 fL
  MONOCYTE: 1.33%
  NEUTROPHIL: 11.33%
  NUCLEATED RED BLOOD CELLS: 0 /100WBC
  PLATELET COUNT: 896 x10E3/uL
  ALANINE AMINOTRANSFERASE: 75.33 u/L
  ALBUMIN: 3.77 G/DL
  ALKALINE PHOSPHATASE: 378.67 u/L
  ASPARTATE AMINOTRANSFERASE: 101.33 u/L
  BLOOD UREA NITROGEN: 11.33 mg/dL
  CARBON DIOXIDE: 25 mmol/L
  CHLORIDE: 99 MEQ/L
  CHOLESTEROL: 66 mg/dL
  CREATINE PHOSPHOKINASE: 277 u/L
  CREATININE: 0.33 mg/dL
  GLUCOSE: 198.33 mg/dL
  LACTATE DEHYDROGENASE: 140.33 u/L
  LIPASE: 11.33 u/L
  PHOSPHORUS: 11.83 mg/dL
  POTASSIUM: 5.37 MEQ/L
  SODIUM: 141.03 MEQ/L
  TOTAL BILIRUBIN: 0.2 mg/dL
  TOTAL PROTEIN: 5.47 G/DL
  URIC ACID: 0.93 mg/dL
[2]
  ABSOLUTE BASOPHIL: 0 CELLS/uL
  ABSOLUTE EOSINOPHIL: 0 CELLS/uL
  ABSOLUTE LYMPHOCYTE: 8734 CELLS/uL
  ABSOLUTE MONOCYTE: 98.67 CELLS/uL
  ABSOLUTE SEGMENTED NEUTROPHIL: 1034 CELLS/uL
  BASOPHIL: 0%
  EOSINOPHIL: 0%
  ERYTHROCYTE COUNT: 5.19 x10E6/uL
  HEMATOCRIT: 33.2%
  HEMOGLOBIN: 12.93 G/DL
  LEUKOCYTE COUNT: 9.87 x10E3/uL
  LYMPHOCYTE: 87%
  MEAN CORPUSCULAR HEMOGLOBIN: 25 pg
  MEAN CORPUSCULAR HEMOGLOBIN CONCENTRATION: 39.03 G/DL
  MEAN CORPUSCULAR VOLUME: 63.93 fL
  MONOCYTE: 1%
  NEUTROPHIL: 12%
  NUCLEATED RED BLOOD CELLS: 0 /100WBC
  PLATELET COUNT: 1190 x10E3/uL
  ALANINE AMINOTRANSFERASE: 75.67 u/L
  ALBUMIN: 4 G/DL
  ALKALINE PHOSPHATASE: 384.33 u/L
  ASPARTATE AMINOTRANSFERASE: 89.67 u/L
  BLOOD UREA NITROGEN: 13 mg/dL
  CARBON DIOXIDE: 32.67 mmol/L
  CHLORIDE: 103 MEQ/L
  CHOLESTEROL: 79.67 mg/dL
  CREATINE PHOSPHOKINASE: 199.33 u/L
  CREATININE: 0.29 mg/dL
  GLUCOSE: 161.33 mg/dL
  LACTATE DEHYDROGENASE: 92.33 u/L
  LIPASE: 11.67 u/L
  PHOSPHORUS: 10.8 mg/dL
  POTASSIUM: 5.38 MEQ/L
  SODIUM: 145.3 MEQ/L
  TOTAL BILIRUBIN: 0.17 mg/dL
  TOTAL PROTEIN: 5.7 G/DL
  URIC ACID: 0.63 mg/dL
[3]
  ABSOLUTE BASOPHIL: 0 CELLS/uL
  ABSOLUTE EOSINOPHIL: 0 CELLS/uL
  ABSOLUTE LYMPHOCYTE: 6334 CELLS/uL
  ABSOLUTE MONOCYTE: 74.67 CELLS/uL
  ABSOLUTE SEGMENTED NEUTROPHIL: 624.67 CELLS/uL
  BASOPHIL: 0%
  EOSINOPHIL: 0%
  ERYTHROCYTE COUNT: 5.31 x10E6/uL
  HEMATOCRIT: 33.17%
  HEMOGLOBIN: 12.87 G/DL
  LEUKOCYTE COUNT: 7.03 x10E3/uL
  LYMPHOCYTE: 89.67%
  MEAN CORPUSCULAR HEMOGLOBIN: 24.23 pg
  MEAN CORPUSCULAR HEMOGLOBIN CONCENTRATION: 38.8 G/DL
  MEAN CORPUSCULAR VOLUME: 62.43 fL
  MONOCYTE: 1%
  NEUTROPHIL: 9.33%
  NUCLEATED RED BLOOD CELLS: 0 /100WBC
  PLATELET COUNT: 1308 x10E3/uL
  ALANINE AMINOTRANSFERASE: 57.33 u/L
  ALBUMIN: 3.9 G/DL
  ALKALINE PHOSPHATASE: 360 u/L
  ASPARTATE AMINOTRANSFERASE: 80.67 u/L
  BLOOD UREA NITROGEN: 11 mg/dL
  CARBON DIOXIDE: 26.33 mmol/L
  CHLORIDE: 101.33 MEQ/L
  CHOLESTEROL: 77 mg/dL
  CREATINE PHOSPHOKINASE: 434.67 u/L
  CREATININE: 0.12 mg/dL
  GLUCOSE: 184.33 mg/dL
  LACTATE DEHYDROGENASE: 112 u/L
  LIPASE: 10.67 u/L
  PHOSPHORUS: 12.1 mg/dL
  POTASSIUM: 4.86 MEQ/L
  SODIUM: 144.9 MEQ/L
  TOTAL BILIRUBIN: 0.2 mg/dL
  TOTAL PROTEIN: 5.83 G/DL
  URIC ACID: 0.87 mg/dL
